From ChEMBL document CHEMBL1201862, “PubChem BioAssay data set” (2004)
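Tested at 5 concentrations; 48 h exposure; 96-well plates; endpoints linearly interpolated, else capped at highest concentration. GI50 marks 50% less growth.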 The source made the active and inactive calls. Rule as the data show it: active = GI50 up to about 1.1 µM and inactive = higher.

Assays:
Assay in all cases: DTP human tumour cell line panel, 48 h
TK-10 = tested on: TK-10
DU-145 = tested on: DU-145
KM12 = tested on: KM12
OVCAR-8 = tested on: OVCAR-8
M14 = tested on: M14
MOLT-4 = tested on: MOLT-4
UO-31 = tested on: UO-31
OVCAR-3 = tested on: OVCAR-3
786-0 = tested on: 786-0
UACC-257 = tested on: UACC-257
SF-295 = tested on: SF-295
HCT-15 = tested on: HCT-15
PC-3 = tested on: PC-3
ACHN = tested on: ACHN
LOX IMVI = tested on: LOX IMVI
MDA-MB-231 = tested on: MDA-MB-231
HCC 2998 = tested on: HCC 2998
RPMI-8226 = tested on: RPMI-8226
EKVX = tested on: EKVX
Malme-3M = tested on: Malme-3M
OVCAR-5 = tested on: OVCAR-5
MDA-N = tested on: MDA-N
A549 = tested on: A549
OVCAR-4 = tested on: OVCAR-4
SK-MEL-28 = tested on: SK-MEL-28
K562 = tested on: K562
U-251 = tested on: U-251
CCRF-CEM = tested on: CCRF-CEM
HT-29 = tested on: HT-29
SR = tested on: SR
SK-MEL-2 = tested on: SK-MEL-2
NCI-H23 = tested on: NCI-H23
COLO 205 = tested on: COLO 205
CAKI-1 = tested on: CAKI-1
BT-549 = tested on: BT-549
MDA-MB-435 = tested on: MDA-MB-435
HCT-116 = tested on: HCT-116
NCI-H460 = tested on: NCI-H460
NCI/ADR-RES = tested on: NCI/ADR-RES
SNB-19 = tested on: SNB-19
HOP-62 = tested on: HOP-62
SN12C = tested on: SN12C
MCF7 = tested on: MCF7
HL-60 = tested on: HL-60
SK-MEL-5 = tested on: SK-MEL-5
SF-539 = tested on: SF-539
Hs-578T = tested on: Hs-578T
A498 = tested on: A498
SK-OV-3 = tested on: SK-OV-3
UACC-62 = tested on: UACC-62
NCI-H522 = tested on: NCI-H522
T47D = tested on: T47D
RXF 393 = tested on: RXF 393
IGROV-1 = tested on: IGROV-1
SNB-75 = tested on: SNB-75
HOP-92 = tested on: HOP-92
NCI-H226 = tested on: NCI-H226
SF-268 = tested on: SF-268
SW-620 = tested on: SW-620

Measured: GI50

NNC(=O)c1nnn(CCc2ccccc2)c1C(=O)NN
> 100 µM: HCT-15
inactive: TK-10 68.2 µM | DU-145 > 100 µM | KM12 > 100 µM | OVCAR-8 > 100 µM | M14 > 100 µM | MOLT-4 > 100 µM | UO-31 > 100 µM | OVCAR-3 > 100 µM | 786-0 > 100 µM | UACC-257 > 100 µM | SF-295 > 100 µM | PC-3 > 100 µM | ACHN > 100 µM | LOX IMVI > 100 µM | MDA-MB-231 > 100 µM | HCC 2998 > 100 µM | RPMI-8226 > 100 µM | EKVX > 100 µM | Malme-3M > 100 µM | OVCAR-5 > 100 µM | MDA-N > 100 µM | A549 > 100 µM | OVCAR-4 > 100 µM | SK-MEL-28 > 100 µM | K562 > 100 µM | U-251 > 100 µM | CCRF-CEM > 100 µM | HT-29 > 100 µM | SR > 100 µM | SK-MEL-2 > 100 µM | NCI-H23 > 100 µM | COLO 205 > 100 µM | CAKI-1 > 100 µM | BT-549 > 100 µM | MDA-MB-435 > 100 µM | HCT-116 > 100 µM | NCI-H460 > 100 µM | NCI/ADR-RES > 100 µM | SNB-19 > 100 µM | HOP-62 > 100 µM | SN12C > 100 µM | MCF7 > 100 µM | HL-60 > 100 µM | SK-MEL-5 > 100 µM

CCOC(=O)Nc1ccc(C)c(NC(=O)OCC)c1
inactive: TK-10 > 100 µM | SF-539 > 100 µM | Hs-578T > 100 µM | DU-145 > 100 µM | KM12 > 100 µM | A498 > 100 µM | OVCAR-8 > 100 µM | M14 > 100 µM | MOLT-4 > 100 µM | SK-OV-3 > 100 µM | UO-31 > 100 µM | OVCAR-3 > 100 µM | 786-0 > 100 µM | UACC-257 > 100 µM | SF-295 > 100 µM | PC-3 > 100 µM | ACHN > 100 µM | LOX IMVI > 100 µM | MDA-MB-231 > 100 µM | HCC 2998 56.2 µM | UACC-62 > 100 µM | RPMI-8226 > 100 µM | EKVX 6.58 µM | Malme-3M > 100 µM | NCI-H522 > 100 µM | T47D > 100 µM | RXF 393 > 100 µM | IGROV-1 55.6 µM | OVCAR-5 > 100 µM | MDA-N > 100 µM | A549 > 100 µM | SK-MEL-28 > 100 µM | K562 > 100 µM | U-251 > 100 µM | CCRF-CEM > 100 µM | HT-29 > 100 µM | SNB-75 > 100 µM | SR > 100 µM | SK-MEL-2 > 100 µM | NCI-H23 > 100 µM | HOP-92 > 100 µM | COLO 205 > 100 µM | CAKI-1 > 100 µM | NCI-H226 > 100 µM | MDA-MB-435 > 100 µM | HCT-116 > 100 µM | SF-268 > 100 µM | NCI-H460 > 100 µM | NCI/ADR-RES > 100 µM | SNB-19 > 100 µM | HOP-62 > 100 µM | SN12C > 100 µM | MCF7 > 100 µM | HL-60 > 100 µM | SK-MEL-5 > 100 µM | SW-620 > 100 µM
> 100 µM: HCT-15

O=S1(=O)OCCOS(=O)(=O)C1Cc1nc2ccccc2[nH]1
active: HOP-92 0.114 µM
26 µM: HCT-15
inactive: TK-10 > 100 µM | DU-145 > 100 µM | KM12 68.2 µM | OVCAR-8 55.6 µM | M14 44.8 µM | MOLT-4 24.2 µM | UO-31 75.7 µM | OVCAR-3 45.8 µM | 786-0 39.7 µM | UACC-257 29.2 µM | SF-295 24.7 µM | PC-3 19.6 µM | ACHN 32.1 µM | LOX IMVI 14.5 µM | MDA-MB-231 43 µM | HCC 2998 54.7 µM | RPMI-8226 34.3 µM | EKVX > 100 µM | Malme-3M > 100 µM | OVCAR-5 > 100 µM | MDA-N 22.3 µM | A549 44.6 µM | OVCAR-4 44.2 µM | SK-MEL-28 97.1 µM | K562 34.5 µM | U-251 38.6 µM | CCRF-CEM 33 µM | HT-29 51.2 µM | SR 28.6 µM | SK-MEL-2 72.3 µM | NCI-H23 41 µM | COLO 205 83.2 µM | CAKI-1 27 µM | BT-549 > 10 µM | MDA-MB-435 51.2 µM | HCT-116 23 µM | NCI-H460 28.2 µM | NCI/ADR-RES 30.3 µM | SNB-19 37.2 µM | HOP-62 26.8 µM | SN12C 35.2 µM | MCF7 33.7 µM | HL-60 22.5 µM | SK-MEL-5 34.7 µM

COc1ccc(C2N(c3ccc(C)c(N=C=O)c3)C(=O)N3C(c4ccc(OC)cc4)N(c4ccc(C)c(N=C=O)c4)C(=O)N23)cc1 (centres undefined)
> 100 µM: HCT-15
inactive: TK-10 > 100 µM | SF-539 > 100 µM | DU-145 > 100 µM | KM12 > 100 µM | A498 44 µM | OVCAR-8 > 100 µM | M14 29.1 µM | MOLT-4 > 100 µM | UO-31 > 100 µM | OVCAR-3 > 100 µM | 786-0 > 100 µM | UACC-257 > 100 µM | SF-295 > 100 µM | PC-3 > 100 µM | ACHN > 100 µM | LOX IMVI > 100 µM | MDA-MB-231 > 100 µM | HCC 2998 > 100 µM | RPMI-8226 > 100 µM | EKVX > 100 µM | Malme-3M 25.8 µM | RXF 393 > 100 µM | IGROV-1 38.9 µM | OVCAR-5 > 100 µM | MDA-N > 100 µM | A549 > 100 µM | OVCAR-4 > 100 µM | SK-MEL-28 > 100 µM | K562 > 100 µM | U-251 > 100 µM | CCRF-CEM > 100 µM | HT-29 > 100 µM | SNB-75 37.7 µM | SR > 100 µM | SK-MEL-2 49.7 µM | NCI-H23 > 100 µM | HOP-92 83.2 µM | COLO 205 62.4 µM | CAKI-1 > 100 µM | BT-549 > 100 µM | NCI-H226 > 100 µM | MDA-MB-435 > 100 µM | HCT-116 > 100 µM | SF-268 > 100 µM | NCI-H460 > 100 µM | NCI/ADR-RES > 100 µM | SNB-19 > 100 µM | HOP-62 > 100 µM | SN12C > 100 µM | MCF7 > 100 µM | HL-60 > 100 µM | SK-MEL-5 > 100 µM | SW-620 > 100 µM

O=[N+]([O-])c1ccc(S(=O)(=O)n2c3ccc(Br)cc3c3nc4ccccc4nc32)cc1
> 100 µM: HCT-15
inactive: TK-10 > 100 µM | Hs-578T 53.6 µM | DU-145 > 100 µM | KM12 > 100 µM | A498 > 100 µM | OVCAR-8 > 100 µM | M14 > 100 µM | MOLT-4 > 100 µM | UO-31 > 100 µM | OVCAR-3 > 100 µM | 786-0 > 100 µM | UACC-257 > 100 µM | SF-295 > 100 µM | PC-3 > 100 µM | ACHN > 100 µM | LOX IMVI > 100 µM | MDA-MB-231 > 100 µM | HCC 2998 > 100 µM | UACC-62 > 100 µM | RPMI-8226 > 100 µM | NCI-H522 > 100 µM | T47D > 100 µM | RXF 393 > 100 µM | IGROV-1 > 100 µM | OVCAR-5 > 100 µM | MDA-N > 100 µM | A549 > 100 µM | OVCAR-4 > 100 µM | SK-MEL-28 > 100 µM | K562 70.8 µM | U-251 > 100 µM | CCRF-CEM 20.7 µM | HT-29 > 100 µM | SNB-75 77.6 µM | SR > 100 µM | SK-MEL-2 > 100 µM | NCI-H23 > 100 µM | HOP-92 > 100 µM | COLO 205 > 100 µM | CAKI-1 > 100 µM | NCI-H226 24 µM | MDA-MB-435 > 100 µM | HCT-116 > 100 µM | SF-268 > 100 µM | NCI-H460 > 100 µM | NCI/ADR-RES > 100 µM | SNB-19 > 100 µM | HOP-62 > 100 µM | SN12C > 100 µM | SK-MEL-5 > 100 µM | SW-620 > 100 µM
